In US11261201B2 (priority 2018, dated 2022):
Converted amounts (≈) assume the structure as drawn. Structures can show the parent of a compound that is named as a salt. Where two headings read alike, the source gives them in different places.

Assays:
E. coli = experiment: Gram negative MIC protocol (OD600, LB, 24 h); conditions: for MIC: Escherichia coli
Protocol: (§1) Overnight bacterial cultures were grown in LB with no added antibiotics at 37° C. with shaking. A 1:1000 dilution of these cultures into LB was exposed to concentration gradients of compounds in 96-well plates (100 μL per well assay volume). Resulting plates were incubated at 37° C. for 24 h without shaking, and OD600 was measured at the end of the incubation. MICs were determined as the lowest concentrations at which OD600 remained at baseline.

A. baumannii = experiment: Gram negative MIC protocol (OD600, LB, 24 h); conditions: for MIC: Acinetobacter baumannii
Protocol: as §1

H37RvMA = experiment: Tuberculosis Alamar Blue/Resazurin assay (MIC); format: cell-based; conditions: read-out: WT H37Rv MTB Activity
[1] = read-out: MIC E. coli delta-TolC LB Media, E. coli delta-TolC, LB media, OD600
[2] = read-out: MIC WT E. coli LB Media, WT E. coli, LB media, OD600
[3] = read-out: MIC A. baumannii LB Media, A. baumannii, LB media, 24 h, OD600
[4] = Mycobacterium tuberculosis, H37RV, WT H37Rv MTB
[5] = read-out: MIC E. coli delta-TolC LB Media, E. coli delta-TolC strain, LB media, 24 h, OD600
[6] = read-out: MIC WT E. coli LB Media, wild-type E. coli, LB media, 24 h, OD600
[7] = Mycobacterium tuberculosis, H37RV

| Compound | MIC (A. baumannii; [3]) [µM] | MIC (H37RvMA; [4]) [µM] | MIC (E. coli; [5]) [µM] | MIC (E. coli; [6]) [µM] | also measured |
| --- | --- | --- | --- | --- | --- |
| OC1CCCCC1CCNCc1ccccc1 (stereo not shown) [B189] | > 300 | > 150 |  |  | MIC (E. coli; [1]): > 300 µM; MIC (E. coli; [2]): > 300 µM |
| COC1CCCCC1CCNCc1ccccc1 (stereo not shown) [B190] | > 300 | > 150 |  |  | MIC (E. coli; [1]): > 300 µM; MIC (E. coli; [2]): > 300 µM |
| CC(NCc1ccccc1)C1[C@H]2C[C@@H]3C[C@@H](C[C@H]1C3)C2 (stereo partly shown) [B191] | 300 (≈ 80.8 µg/mL) | > 150 |  |  | MIC (E. coli; [1]): 300 µM (≈ 80.8 µg/mL); MIC (E. coli; [2]): > 300 µM |
| c1ccc(CNCCc2cccc3ccccc23)cc1 [B192] | 300 (≈ 78.4 µg/mL) | 33 (≈ 8.63 µg/mL) |  |  | MIC (E. coli; [1]): 96 µM (≈ 25.1 µg/mL); MIC (E. coli; [2]): 300 µM (≈ 78.4 µg/mL) |
| OC(CNCc1ccccc1)c1cccc2ccccc12 (stereo not shown) [B193] | 300 (≈ 83.2 µg/mL) | 150 (≈ 41.6 µg/mL) |  |  | MIC (E. coli; [1]): 300 µM (≈ 83.2 µg/mL); MIC (E. coli; [2]): > 300 µM |
| CC(Cc1ccc2ccccc2c1)NCc1ccccc1 (stereo not shown) [B194] |  |  |  |  | MIC E. coli delta-TolC LB Media (E. coli; E. coli delta-TolC, LB media, OD600): 170 µM (≈ 46.8 µg/mL); MIC WT E. coli LB Media (E. coli; WT E. coli, LB media, OD600): >300 µM; MIC A. baumannii LB Media (A. baumannii; A. baumannii, LB media, OD600): 300 µM (≈ 82.6 µg/mL); MIC (H37RvMA): 150 µM (≈ 41.3 µg/mL) |
| c1ccc(CNC2CCc3cccc4cccc2c34)cc1 (stereo not shown) [B195] | > 300 | > 150 |  |  | MIC (E. coli; [1]): 300 µM (≈ 82 µg/mL); MIC (E. coli; [2]): > 300 µM |
| C[C@@H](NCc1ccccc1)C12CC3CC(CC(C3)C1)C2 [B196] | > 300 | 55 (≈ 14.8 µg/mL) |  |  | MIC (E. coli; [1]): 300 µM (≈ 80.8 µg/mL); MIC (E. coli; [2]): > 300 µM |
| C[C@H](NCc1ccccc1)C12CC3CC(CC(C3)C1)C2 [B197] | 300 (≈ 80.8 µg/mL) | > 150 |  |  | MIC (E. coli; [1]): 96 µM (≈ 25.9 µg/mL); MIC (E. coli; [2]): 170 µM (≈ 45.8 µg/mL) |
| c1ccc(CNCCC23CC4CC(CC(C4)C2)C3)cc1 [B198] | 170 (≈ 45.8 µg/mL) |  | 170 (≈ 45.8 µg/mL) | > 300 | MIC (H37RvMA; WT H37Rv MTB): 91 µM (≈ 24.5 µg/mL) |
| COc1ccc2cccc(CCNCc3ccccc3)c2c1 [B199] | 170 (≈ 49.5 µg/mL) | 150 (≈ 43.7 µg/mL) | 170 (≈ 49.5 µg/mL) | > 300 |  |
| COc1ccc2ccccc2c1CCNCc1ccccc1 [B200] | 300 (≈ 87.4 µg/mL) | 91 (≈ 26.5 µg/mL) | 170 (≈ 49.5 µg/mL) | > 300 |  |
| COc1ccc(CC(C)NCc2ccccc2)c2ccccc12 (stereo not shown) [B201] | 170 (≈ 51.9 µg/mL) |  | 96 (≈ 29.3 µg/mL) | > 300 | MIC (H37RvMA; [7]): 91 µM (≈ 27.8 µg/mL) |
| COCC(CC1CCCCC1)NCc1ccccc1 (stereo not shown) [B202, N-benzyl-1-cyclohexyl-3-methoxypropan-2-amine hydrochloride] | > 300 | > 150 | > 300 | > 300 |  |
| COC(=O)C(CC1CCCCC1)NCc1ccccc1 (stereo not shown) [B203, methyl 2-(benzylamino)-3-cyclohexylpropanoate hydrochloride] | > 300 | > 150 | 170 | > 300 |  |
| O=C(O)C(CC1CCCCC1)NCc1ccccc1 (stereo not shown) [B204, 2-(benzylamino)-3-cyclohexylpropanoic acid] | > 300 |  | > 300 | > 300 | MIC (H37RvMA; WT H37Rv MTB): >150 µM |
| NC(=O)C(CC1CCCCC1)NCc1ccccc1 (stereo not shown) [B205, 2-(benzylamino)-3-cyclohexylpropanamide hydrochloride] | > 300 | > 150 | > 300 | > 300 |  |
| c1ccc(CNC2Cc3ccccc3C2)cc1 [B206, N-benzyl-2,3-dihydro-1H-inden-2-amine hydrochloride] | > 300 | > 150 | > 300 | > 300 |  |
| Fc1ccc2c(c1)[C@@H](NCc1ccccc1)CC2 [B208, hydrochloride] | > 300 | > 150 | > 300 | > 300 |  |

| Compound | MIC (A. baumannii; [3]) [µM] | MIC (H37RvMA; [4]) [µM] | MIC (E. coli; [5]) [µM] | MIC (E. coli; [6]) [µM] | also measured |
| --- | --- | --- | --- | --- | --- |
| COc1ccc2c(c1)[C@@H](NCc1ccccc1)CC2 [B209, (S)-N-benzyl-6-methoxy-2,3-dihydro-1H-inden-1-amine hydrochloride] | > 300 | > 150 | > 300 | > 300 |  |
| CC(C)(C)OC(=O)N(Cc1ccccc1)C(C=O)CC1CCCCC1 (stereo not shown) [B210, tert-butyl benzyl(1-cyclohexyl-3-oxopropan-2-yl)carbamate] | > 300 | > 150 | > 300 | > 300 |  |
| FC1(F)CCC(CCNCc2ccccc2)CC1 [B212, N-benzyl-2-(4,4-difluorocyclohexyl)ethanamine hydrochloride] | > 300 | > 150 | > 300 | > 300 |  |
| c1ccc(CNCC2CCc3ccccc32)cc1 (stereo not shown) [B213, N-benzyl-1-(2,3-dihydro-1H-inden-1-yl)methanamine hydrochloride] | > 300 | > 150 | > 300 | > 300 |  |
| Cl.c1ccc(CNCC2CCCc3ccccc32)cc1 (stereo not shown) [B214, N-benzyl-1-(1,2,3,4-tetrahydronaphthalen-1-yl)methanamine hydrochloride] | > 300 |  | > 300 | > 300 | MIC (H37RvMA; WT H37Rv MTB): >150 µM |
| c1ccc(CNCCC2CCNCC2)cc1 [B215, N-benzyl-2-(piperidin-4-yl)ethanamine hydrochloride] | > 300 | > 150 | > 300 | > 300 |  |
| CC(C)(C)OC(=O)N1CCC(CCNCc2ccccc2)CC1 [B216, tert-butyl 4-(2-(benzylamino)ethyl) piperidine-1-carboxylate] | > 300 | > 150 | > 300 | > 300 |  |
| C[C@@H](Cc1ccccc1)NCc1ccccc1 [B217] |  |  | > 300 | > 300 | MIC (A. baumannii; read-out: MIC A. baumannii LB Media): > 300 µM; MIC (H37RvMA; [7]): > 150 µM |
| O=C1CCC(CCNCc2ccccc2)CC1 [B218, 4-(2-(benzylamino)ethyl) cyclohexanone] | > 300 | > 150 | > 300 | > 300 |  |
| CC(/C=C/C1CCCCC1)NCc1ccccc1 (stereo not shown) [B219, (E)-N-benzyl-4-cyclohexylbut-3-en-2-amine] | > 300 | > 150 | > 300 | > 300 |  |
| COc1cccc2c1B(O)OC2CNCc1ccccc1 (stereo not shown) [B220, 3-((benzylamino)methyl)-7-methoxybenzo[c][1,2]oxaborol-1(3H)-ol hydrochloride] | > 300 | > 150 | > 300 | > 300 |  |
| CC1CCC(CCNCc2ccccc2)CC1 (stereo not shown) [B221] | 220 (≈ 50.9 µg/mL) | 150 (≈ 34.7 µg/mL) | 150 (≈ 34.7 µg/mL) | 300 (≈ 69.4 µg/mL) |  |
| c1ccc(CNCCC2CCCCO2)cc1 (stereo not shown) [B222] | > 300 | > 150 | > 150 | > 300 |  |
| c1ccc(CNCCN2CCCCC2)cc1 [B223] | > 300 | > 150 | > 150 | > 300 |  |
| c1ccc(CNCCC2CCCNC2)cc1 (stereo not shown) [B224] | > 300 | > 150 | > 150 | > 300 |  |
| FC(F)(F)c1ccccc1CNCCC1CCCCC1 [B225, 2-cyclohexyl-N-(2-(trifluoromethyl)benzyl)ethanamine hydrochloride] | 300 | > 150 | > 150 | > 300 |  |
| Oc1ccccc1CNCCC1CCCCC1 [B226, 2-((2-cyclohexylethylamino)methyl)phenol] | 54 (≈ 12.6 µg/mL) | 33 (≈ 7.7 µg/mL) | 33 (≈ 7.7 µg/mL) | 54 (≈ 12.6 µg/mL) |  |
| CC(C)c1ccccc1CNCCC1CCCCC1 [B227, 2-cyclohexyl-N-(2-isopropylbenzyl)ethanamine hydrochloride] | 170 | 150 | 12 | 170 |  |
